{"source": "patent USRE39096E1", "about": "“Treatment of skin disorders” (Hadasit Medical Research Services and Development Company …, priority 1997, dated 2006)", "key": {"[1]": {"system": "rats", "test": "Post-surgical abdominal adhesion formation in rats, Halofuginone in diet as pretreatment", "format": "in vivo, rat", "description": "The experimental method was as follows. Halofuginone was administered in the diet of two groups of rats at a concentration of 5 mg/kg dry feed for 4 days before surgery, as a pretreatment. Two other groups of rats were fed a normal diet and served as control groups. One of the groups of rats fed Halofuginone and one control group then underwent surgery, which was performed as follows. First, the abdomen of the rats was shaved and prepared with iodine and alcohol. The abdominal cavity was entered through a mid-line incision. The small intestine was scraped from the duodenum down to from about 9 to about 10 cm from the cecum, until capillary bleeding occurred. To avoid drying, Hartman's solution at about 37 C. was occasionally dripped on the intestine. After replacement of the intestine into the abdominal cavity, the abdomen was closed in two layers with continuous 00 chromic catgut suture.\nIn those rats receiving the drug, Halofuginone treatment was continued for 21 days following surgery. At the end of 21 days, the rats were weighed and the number and severity of adhesions were determined according to a double-blind procedure, in which adhesions were classified according to the following grading: 0=no adhesions; I=a thin, filmy, easily separated adhesion; II=several thin adhesions; III=a thick, broad adhesion and IV=several thick adhesions. Clearly, 0 is the least severe and IV is the most severe grade."}, "[2]": {"system": "bovine corneal endothelial cells", "test": "Sulfate incorporation into ECM of cultured endothelial cells", "format": "cell-based", "conditions": "FIG. 3", "source_text": "(§1) As noted above, skin cell hyperproliferation is enabled by the deposition of ECM components. The following examples illustrate the ability of Halofuginone to inhibit such deposition of ECM components, further supporting the use of Halofuginone as a treatment for psoriasis. These examples illustrate the unexpected finding that Halofuginone completely abolishes deposition of all ECM components, and not just collagen, thereby preventing cell proliferation which is enabled by the formation of ECM. Cultures of bovine corneal endothelial cells were established from steer eyes and maintained as previously described [D. Gospodarowicz, et al., Exp. Eye Res., No. 25, pp. 75-99 (1977)]. Cells were cultured at 37° C. in 10% CO2 humidified incubators and the experiments were performed with early (3-8) cell passages.\n(§2) For preparation of sulfate-labelled ECM (extra-cellular matrix), corneal endothelial cells were seeded into Swell plates at a confluent density forming, within 4-6 h, a contact inhibited cell monolayer composed of closely apposed, and growth arrested cells. […] To determine the total amount of sulfate labeled material, the ECM was digested with trypsin (25 μg/ml 24 h, 37° C.) and the solubilized material counted in a β-counter."}, "[3]": {"system": "Rat mesengial cells", "test": "Sulfate and glycine incorporation into rat mesengial cell ECM", "format": "cell-based", "conditions": "for inhibition at 0.05 µg/mL / inhibition at 0.2 µg/mL: Rattus norvegicus; for inhibition at 0.05 µg/mL: 50 ng/ml Halofuginone; for inhibition at 0.2 µg/mL: 200 ng/ml Halofuginone", "description": "Rat […] grown to confluency, 24 hours after seeding. The cells were then cultured with or without Halofuginone in the presence of either Na2^35SO4 (FIGS. 5A and 5B) or ^14C-glycine (FIGS. 5C and 5D). Eight days after seeding, the cell layer was dissolved to expose the underlying ECM, washed and digested with collagenase to determine the effect of Halofuginone on CDP proteins, as shown in FIGS. 5A and 5C. The remaining material was digested with trypsin and subjected to β-scintillation counting to determine the effect of Halofuginone on NCDP proteins, as shown in FIGS 5B and 5D."}, "[4]": {"system": "bovine corneal endothelial cells", "test": "Viability and morphology of confluent corneal endothelial cell monolayer", "format": "cell-based", "conditions": "growth arrested monolayer", "source_text": "as §1, §2"}, "[5]": {"system": "bovine corneal endothelial cells", "test": "Incorporation of sulfate, proline, lysine and glycine into ECM of bovine corneal endothelial cells", "format": "cell-based", "conditions": "eight days after seeding", "description": "Corneal endothelial cells were seeded at a confluent density and grown as described in Example 3 above. The cells were cultured with or without Halofuginone in the presence of either Na2^35SO4 (FIG. 4A), ^3H-proline (FIG. 4B), ^14C-lysine (FIG. 4C) or ^14C-glycine (FIG. 4D). Eight days after seeding, the cell layer was dissolved substantially as described in Example 3 above. The underlying ECM was then either trypsinized to determine the effect of Halofuginone on incorporation of labeled material into total protein, substantially as described in Example 3 above, or subjected to sequential digestions with collagenase and trypsin to evaluate the effect of Halofuginone on both collagenase-digestible proteins (CDP) and non-collagenase digestible proteins (NCDP)."}, "[6]": {"system": "keloid-derived cells", "test": "Collagen synthesis in keloid-derived cells ([3H]proline incorporation, collagenase digestion)", "format": "cell-based, human", "conditions": "24 hours incubation, FIG. 2", "description": "A keloid, which had arisen in response to the piercing of the ear for insertion of an earring, was removed from the ear lobe of a person. The keloid tissue was sectioned so that histological studies could be performed. Briefly, the tissue samples were collected into phosphate-buffered saline (PBS) and fixed overnight in 4% paraformaldehyde in PBS at 4° C. Serial 5 um sections were prepared after the samples had been dehydrated in graded ethanol solutions, cleared in chloroform and embedded in Paraplast. Differential staining of collagenous and non-collagenous proteins was performed with 0.1% Sirius red and 0.1% fast green as a counter-stain in picric acid. This procedure stains collagen red [Gascon-Barre, M., et al., J. Histochem. Cytochem., Vol 37, p. 377-381, 1989].\nThe keloid was removed as described in Example 1 above. The keloid-derived cells were incubated with and without Halofuginone for 24 hours in 0.5 ml glutamine-free DMEM containing 5% FCS (Fetal Calf Serum), ascorbic acid (50 μg/ml), B-aminopropionitrile (50 μg/ml) and 2 μCi of [^3H]proline. At the end of incubation, the medium was decanted and the cells were incubated with or without collagenase for 18 hours, followed by precipitation of proteins by the addition of TCA (trichloroacetic acid). […]"}}, "note": "Several values for one entry are separate records, joined by “and”; a condition that tells them apart may be missing. Equal values may be shown once. Read-outs that look alike come from different tables or passages of the source."}
{"smiles": "O=C(CC1NCCCC1O)Cn1cnc2cc(Br)c(Cl)cc2c1=O", "note": "(centres unmarked) [Halofuginone]", "values": [{"measurement": "Adhesion Score", "setting": "[1]; individual rats, Group Number 2 (taken as surgery + Halofuginone 5 mg/kg dry feed, 4 days before and 21 days after surgery)", "result": "0-1 (3×) and 0 (3×) and 1 (2×) and 1-2 (2×)"}, {"measurement": "adhesions in rats without surgical intervention", "setting": "[1]; no surgery, Halofuginone in diet", "result": "None of the rats without surgical intervention"}, {"measurement": "post-surgical adhesion formation", "setting": "[1]; rats with surgery, Halofuginone in diet 5 mg/kg dry feed", "result": "able to inhibit post-surgical adhesion formation"}, {"measurement": "inhibition of sulfate incorporation into ECM", "setting": "[2]; 1 μg/ml Halofuginone", "result": "almost complete inhibition"}, {"measurement": "inhibition at 0.2 µg/mL", "setting": "[2]; Bos taurus, Endothelial cell, 0.2 μg/ml Halofuginone", "result": 50, "unit": "%"}, {"measurement": "microscopic examination of denuded culture dishes (ECM layer)", "setting": "[3]; ECM produced in the presence of Halofuginone", "result": "thin or non-existant layer of ECM"}, {"measurement": "inhibition at 0.05 µg/mL", "setting": "[3]; collagenase-digestible proteins, read-out: inhibition of glycine incorporation, CDP proteins", "result": "~80", "unit": "%"}, {"measurement": "inhibition at 0.05 µg/mL", "setting": "[3]; non-collagenase digestible proteins, read-out: inhibition of glycine incorporation, NCDP proteins", "result": "~80", "unit": "%"}, {"measurement": "inhibition at 0.2 µg/mL", "setting": "[3]; collagenase-digestible proteins, read-out: inhibition of sulfate incorporation, CDP proteins", "result": "~30", "unit": "%"}, {"measurement": "inhibition at 0.2 µg/mL", "setting": "[3]; non-collagenase digestible proteins, read-out: inhibition of sulfate incorporation, NCDP proteins", "result": "~70", "unit": "%"}, {"measurement": "concentration up to which cells remained viable and retained normal monolayer configuration and morphological appearance", "setting": "[4]", "result": "≤ 2", "unit": "μg/ml"}, {"measurement": "incorporation of proline into ECM", "setting": "[5]; 3H-proline, both CDP and NCDP, FIG. 4B", "result": "inhibited"}, {"measurement": "incorporation of glycine into ECM", "setting": "[5]; 14C-glycine, both CDP and NCDP, FIG. 4D", "result": "inhibited"}, {"measurement": "incorporation of lysine into ECM", "setting": "[5]; 14C-lysine, both CDP and NCDP, FIG. 4C", "result": "inhibited"}, {"measurement": "incorporation of sulfate into ECM", "setting": "[5]; Na2 35SO4, both CDP and NCDP, FIG. 4A", "result": "inhibited"}, {"measurement": "production of collagen (collagenase-digestible [3H]proline-labelled proteins)", "setting": "[6]", "result": "inhibited the production of collagen"}, {"measurement": "production of non-collagenase digestible proteins", "setting": "[6]", "result": "not of non-collagenase digestible proteins"}]}
